Tests used:
ALKBH5 = target: T1, ALKBH5 (Homo sapiens, UniProt Q6P6C2); test: HPLC-based inhibition assay for ALKBH5, m6A-ssRNA substrate; assay type: biochemical; settings: 5-mer m6A-ssRNA substrate
T1 construct: pNIC28-Bsa4 ALKBH5 (encompassing residues 66-292); made in house; host or cells: E. coli BL21 (DE3) Rosetta T1R
Protocol: Figure S4. Enzyme inhibition curves of 12 against FTO and ALKBH5, as determined by a HPLC-based assay using m6A-containing ssRNA substrates. The substrate sequences for the FTO and ALKBH5 assays are 5’-CUUGUCA(m6A)CAGCAGA-3’ and 5’-GG(m6A)CU-3’, […]
respectively, which represents >100-fold selectivity for FTO over ALKBH5.
(1 picture or pasted object on this page, not shown here) […]
chloride) over 18 min, at a flow rate of 1 mL/min at 40°C. The UV detection wavelength was set at 266 nm. The percentage inhibition was estimated based on the peak areas of the m6A-ssRNA substrate and the corresponding demethylated product. For IC50 determination, eight […]
were then calculated from the variation in percentage demethylation at different inhibitor concentrations, using nonlinear regression, with normalized dose-response fit on GraphPad […]
HPLC-based inhibition assays for AlkB and ALKBH2
The assay was modified from previously reported method.[18] A 15-mer m1A-ssDNA substrate with the sequence 5’-AAAGCAG(m1A)ATTCGAA-3 ’ (Yale University, W.M.
Keck Foundation Biotechnology Resource Laboratory) was used in this inhibition assay. The assay was performed in triplicate for each inhibitor, in a final reaction volume of 25 µL. […]

PHD2 = system: PHD2; parameters: method as in PMID 16858410; settings: known inhibitor; cited from earlier work

T1 sequence (Q6P6C2 66-292): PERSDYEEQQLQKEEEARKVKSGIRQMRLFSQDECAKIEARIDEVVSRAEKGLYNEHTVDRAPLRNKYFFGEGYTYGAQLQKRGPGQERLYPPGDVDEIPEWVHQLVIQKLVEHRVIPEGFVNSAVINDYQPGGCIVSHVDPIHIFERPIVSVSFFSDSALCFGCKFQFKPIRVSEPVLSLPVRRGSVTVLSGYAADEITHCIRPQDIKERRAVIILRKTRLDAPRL

SMILES | IC50 (ALKBH5) [µM] | IC50 (PHD2) [µM]
O=C(O)/C=C/C(=O)NNC(=O)c1cnccc1Cc1ccccc1 [Compound 12] | 96.5 | 
O=C(O)/C=C/C(=O)NNC(=O)c1cccnc1 [Compound 21] |  | 0.082

Reference: publication PMC5424463, “A strategy based on nucleotide specificity leads to a subfamily-selective and cell-active inhibitor of N ^6-methyladenosine demethylase FTO” (Chemical Science, 2014)
